# Columns and labels:
# Assay in all cases: KINOMEscan
# Type in all cases: binding
# ACVR2B = ACVR2B (Homo sapiens (Human), UniProt Q13705); details: read-out: percent control
# From the text: (§1) Example 2. In Vitro Kinase Selectivity Profiling of the Compounds of the Present Disclosure
# ALK = ALK (Homo sapiens (Human), UniProt Q9UM73); details: read-out: percent control
# From the text: as §1
# ALK(L1196M) = ALK(L1196M) (Homo sapiens (Human), UniProt Q9UM73, L1196M); details: read-out: percent control
# From the text: as §1
# BMPR1A = BMPR1A (Homo sapiens (Human), UniProt P36894); details: read-out: percent control
# From the text: as §1
# BMPR1B = BMPR1B (Homo sapiens (Human), UniProt O00238); details: read-out: percent control
# From the text: as §1
# BRSK2 = BRSK2 (Homo sapiens (Human), UniProt Q8IWQ3); details: read-out: percent control
# From the text: as §1
# CDC2L5 = CDC2L5 (Homo sapiens (Human), UniProt Q14004); details: read-out: percent control
# From the text: as §1
# CDK4-cyclinD1 = CDK4-cyclinD1 (Homo sapiens (Human), UniProt P11802); details: read-out: percent control
# From the text: as §1
# CLK2 = CLK2 (Homo sapiens (Human), UniProt P49760); details: read-out: percent control
# From the text: as §1
# CSF1R-autoinhibited = CSF1R-autoinhibited (Homo sapiens (Human), UniProt P07333); details: read-out: percent control
# From the text: as §1
# CSNK1D = CSNK1D (Homo sapiens (Human), UniProt P48730); details: read-out: percent control
# From the text: as §1
# EGFR(S752-I759del) = EGFR(S752-I759del) (Homo sapiens (Human), UniProt P00533, DEL752-759); details: read-out: percent control
# From the text: as §1
# EPHA8 = EPHA8 (Homo sapiens (Human), UniProt P29322); details: read-out: percent control
# From the text: as §1
# ERK3 = ERK3 (Homo sapiens (Human), UniProt Q16659); details: read-out: percent control
# From the text: as §1
# FGR = FGR (Homo sapiens (Human), UniProt P09769); details: read-out: percent control
# From the text: as §1
# FLT3(ITD, F691L) = details: 1 μM
# From the text: as §1
# FLT3(K663Q) = FLT3(K663Q) (Homo sapiens (Human), UniProt P36888, K663Q); details: read-out: percent control
# From the text: as §1
# IGF1R = IGF1R (Homo sapiens (Human), UniProt P08069); details: read-out: percent control
# From the text: as §1
# IRAK4 = IRAK4 (Homo sapiens (Human), UniProt Q9NWZ3); details: read-out: percent control
# From the text: as §1
# [1] = target: JAK1(JH1domain-catalytic) (Homo sapiens (Human), UniProt P23458); details: read-out: percent control
# From the text: as §1
# LATS1 = LATS1 (Homo sapiens (Human), UniProt O95835); details: read-out: percent control
# From the text: as §1
# MLK3 = MLK3 (Homo sapiens (Human), UniProt Q16584); details: read-out: percent control
# From the text: as §1
# MST2 = MST2 (Homo sapiens (Human), UniProt Q13188); details: read-out: percent control
# From the text: as §1
# MST4 = MST4 (Homo sapiens (Human), UniProt Q9P289); details: read-out: percent control
# From the text: as §1
# MYO3B = MYO3B (Homo sapiens (Human), UniProt Q8WXR4); details: read-out: percent control
# From the text: as §1
# NEK10 = NEK10 (Homo sapiens (Human), UniProt Q6ZWH5); details: read-out: percent control
# From the text: as §1
# PIK3CA = PIK3CA (Homo sapiens (Human), UniProt P42336); details: read-out: percent control
# From the text: as §1
# PIKFYVE = PIKFYVE (Homo sapiens (Human), UniProt Q9Y2I7); details: read-out: percent control
# From the text: as §1
# PIP5K2C = PIP5K2C (Homo sapiens (Human), UniProt Q8TBX8); details: read-out: percent control
# From the text: as §1
# PKN2 = PKN2 (Homo sapiens (Human), UniProt Q16513); details: read-out: percent control
# From the text: as §1
# PRKR = PRKR (Homo sapiens (Human), UniProt P19525); details: read-out: percent control
# From the text: as §1
# RIOK3 = RIOK3 (Homo sapiens (Human), UniProt O14730); details: read-out: percent control
# From the text: as §1
# RIPK5 = RIPK5 (Homo sapiens (Human), UniProt Q6XUX3); details: read-out: percent control
# From the text: as §1
# [2] = target: RSK4(Kin.Dom.1-N-terminal) (Homo sapiens (Human), UniProt Q9UK32); details: read-out: percent control
# From the text: as §1
# SLK = SLK (Homo sapiens (Human), UniProt Q9H2G2); details: read-out: percent control
# From the text: as §1
# SNARK = SNARK (Homo sapiens (Human), UniProt Q9H093); details: read-out: percent control
# From the text: as §1
# SRMS = SRMS (Homo sapiens (Human), UniProt Q9H3Y6); details: read-out: percent control
# From the text: as §1
# TAOK2 = TAOK2 (Homo sapiens (Human), UniProt Q9UL54); details: read-out: percent control
# From the text: as §1
# TGFBR1 = TGFBR1 (Homo sapiens (Human), UniProt P36897); details: read-out: percent control
# From the text: as §1
# ZAP70 = ZAP70 (Homo sapiens (Human), UniProt P43403); details: read-out: percent control
# From the text: as §1
# MST2, sequence (Q13188 whole entry): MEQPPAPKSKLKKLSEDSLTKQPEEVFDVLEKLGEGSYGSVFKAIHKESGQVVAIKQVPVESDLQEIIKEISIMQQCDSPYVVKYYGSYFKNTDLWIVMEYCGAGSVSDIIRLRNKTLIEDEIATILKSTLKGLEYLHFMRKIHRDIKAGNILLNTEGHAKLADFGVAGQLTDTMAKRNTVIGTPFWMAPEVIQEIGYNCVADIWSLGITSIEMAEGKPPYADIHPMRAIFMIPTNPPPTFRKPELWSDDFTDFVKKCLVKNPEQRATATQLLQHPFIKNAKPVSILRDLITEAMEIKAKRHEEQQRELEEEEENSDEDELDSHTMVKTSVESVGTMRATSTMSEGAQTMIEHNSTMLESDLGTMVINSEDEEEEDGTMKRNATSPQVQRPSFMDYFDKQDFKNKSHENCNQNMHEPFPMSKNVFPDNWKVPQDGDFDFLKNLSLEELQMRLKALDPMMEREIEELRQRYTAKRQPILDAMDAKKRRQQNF
# ACVR2B, sequence (Q13705 19-512): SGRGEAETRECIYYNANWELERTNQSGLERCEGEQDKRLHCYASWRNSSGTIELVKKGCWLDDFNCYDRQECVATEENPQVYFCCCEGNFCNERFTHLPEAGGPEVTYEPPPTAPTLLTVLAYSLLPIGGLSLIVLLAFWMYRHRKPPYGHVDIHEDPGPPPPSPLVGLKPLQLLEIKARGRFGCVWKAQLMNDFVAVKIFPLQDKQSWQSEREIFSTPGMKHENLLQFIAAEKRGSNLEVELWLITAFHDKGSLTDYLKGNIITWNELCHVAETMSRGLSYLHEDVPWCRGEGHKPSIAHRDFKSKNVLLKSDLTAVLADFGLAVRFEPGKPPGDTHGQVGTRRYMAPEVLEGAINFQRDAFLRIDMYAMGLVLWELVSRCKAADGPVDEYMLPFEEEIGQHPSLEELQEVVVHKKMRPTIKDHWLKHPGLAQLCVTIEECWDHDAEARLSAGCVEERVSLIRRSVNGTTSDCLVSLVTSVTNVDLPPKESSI
# MYO3B, sequence (Q8WXR4 whole entry): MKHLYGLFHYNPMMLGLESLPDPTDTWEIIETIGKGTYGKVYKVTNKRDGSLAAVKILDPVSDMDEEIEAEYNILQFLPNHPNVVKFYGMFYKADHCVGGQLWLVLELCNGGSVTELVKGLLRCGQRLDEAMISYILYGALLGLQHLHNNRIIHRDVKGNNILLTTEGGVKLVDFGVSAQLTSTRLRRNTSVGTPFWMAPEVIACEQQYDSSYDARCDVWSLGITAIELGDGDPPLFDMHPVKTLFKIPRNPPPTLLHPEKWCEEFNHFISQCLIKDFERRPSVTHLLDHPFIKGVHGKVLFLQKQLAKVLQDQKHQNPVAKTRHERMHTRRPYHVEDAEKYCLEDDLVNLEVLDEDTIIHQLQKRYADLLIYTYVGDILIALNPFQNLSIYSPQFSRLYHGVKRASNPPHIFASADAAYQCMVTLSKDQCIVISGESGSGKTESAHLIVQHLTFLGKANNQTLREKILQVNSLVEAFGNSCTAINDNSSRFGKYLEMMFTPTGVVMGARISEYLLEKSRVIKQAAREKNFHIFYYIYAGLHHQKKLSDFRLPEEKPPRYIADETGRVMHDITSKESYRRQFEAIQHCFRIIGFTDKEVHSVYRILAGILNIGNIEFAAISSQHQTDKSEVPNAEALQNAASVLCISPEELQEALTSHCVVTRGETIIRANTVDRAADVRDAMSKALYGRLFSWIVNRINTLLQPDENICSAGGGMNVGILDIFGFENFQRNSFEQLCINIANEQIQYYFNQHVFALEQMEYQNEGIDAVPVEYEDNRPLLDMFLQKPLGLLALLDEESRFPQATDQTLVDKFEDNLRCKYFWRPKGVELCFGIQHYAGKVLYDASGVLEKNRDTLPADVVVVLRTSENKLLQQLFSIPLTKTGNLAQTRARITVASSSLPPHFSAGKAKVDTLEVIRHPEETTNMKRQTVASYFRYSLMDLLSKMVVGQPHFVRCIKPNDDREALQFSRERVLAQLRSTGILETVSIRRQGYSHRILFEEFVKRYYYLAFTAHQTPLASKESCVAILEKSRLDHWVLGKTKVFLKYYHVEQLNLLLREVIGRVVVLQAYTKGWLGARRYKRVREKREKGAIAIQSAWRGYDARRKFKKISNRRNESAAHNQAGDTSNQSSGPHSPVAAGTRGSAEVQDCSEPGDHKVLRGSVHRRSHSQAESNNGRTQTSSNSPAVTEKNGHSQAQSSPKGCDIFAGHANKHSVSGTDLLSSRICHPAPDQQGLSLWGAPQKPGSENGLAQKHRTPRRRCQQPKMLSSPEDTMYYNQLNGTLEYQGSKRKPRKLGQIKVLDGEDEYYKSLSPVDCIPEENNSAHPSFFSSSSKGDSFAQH
# NEK10, sequence (Q6ZWH5 whole entry): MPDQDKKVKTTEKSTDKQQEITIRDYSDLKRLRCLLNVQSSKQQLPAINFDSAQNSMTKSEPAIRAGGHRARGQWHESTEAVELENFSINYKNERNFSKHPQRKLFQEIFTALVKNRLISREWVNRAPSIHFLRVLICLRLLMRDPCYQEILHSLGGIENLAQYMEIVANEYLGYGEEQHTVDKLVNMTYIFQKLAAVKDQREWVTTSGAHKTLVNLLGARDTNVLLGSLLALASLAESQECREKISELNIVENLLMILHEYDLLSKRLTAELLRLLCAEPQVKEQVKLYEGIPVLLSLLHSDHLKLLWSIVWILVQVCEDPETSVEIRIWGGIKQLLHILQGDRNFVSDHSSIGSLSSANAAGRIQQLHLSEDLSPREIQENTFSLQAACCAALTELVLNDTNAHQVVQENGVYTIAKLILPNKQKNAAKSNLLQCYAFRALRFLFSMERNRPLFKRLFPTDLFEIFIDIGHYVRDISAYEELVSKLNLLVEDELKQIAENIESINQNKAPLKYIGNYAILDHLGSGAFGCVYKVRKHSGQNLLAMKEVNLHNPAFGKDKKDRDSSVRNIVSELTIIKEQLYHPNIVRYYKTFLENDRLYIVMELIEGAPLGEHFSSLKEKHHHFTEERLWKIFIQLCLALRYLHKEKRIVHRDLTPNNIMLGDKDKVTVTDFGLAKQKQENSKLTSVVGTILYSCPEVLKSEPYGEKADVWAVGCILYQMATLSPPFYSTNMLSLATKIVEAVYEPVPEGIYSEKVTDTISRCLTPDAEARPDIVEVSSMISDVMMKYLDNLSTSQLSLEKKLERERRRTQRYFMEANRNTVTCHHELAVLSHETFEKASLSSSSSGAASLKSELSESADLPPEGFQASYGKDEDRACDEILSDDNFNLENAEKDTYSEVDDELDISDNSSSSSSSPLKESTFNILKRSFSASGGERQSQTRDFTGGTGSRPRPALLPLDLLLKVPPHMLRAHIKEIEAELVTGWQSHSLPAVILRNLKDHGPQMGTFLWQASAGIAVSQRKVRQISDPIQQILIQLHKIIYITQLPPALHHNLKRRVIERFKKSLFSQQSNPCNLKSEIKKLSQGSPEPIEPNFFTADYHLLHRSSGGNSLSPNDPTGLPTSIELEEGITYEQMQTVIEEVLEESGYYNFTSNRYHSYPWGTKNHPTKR
# CDC2L5, sequence (Q14004 whole entry, looked up): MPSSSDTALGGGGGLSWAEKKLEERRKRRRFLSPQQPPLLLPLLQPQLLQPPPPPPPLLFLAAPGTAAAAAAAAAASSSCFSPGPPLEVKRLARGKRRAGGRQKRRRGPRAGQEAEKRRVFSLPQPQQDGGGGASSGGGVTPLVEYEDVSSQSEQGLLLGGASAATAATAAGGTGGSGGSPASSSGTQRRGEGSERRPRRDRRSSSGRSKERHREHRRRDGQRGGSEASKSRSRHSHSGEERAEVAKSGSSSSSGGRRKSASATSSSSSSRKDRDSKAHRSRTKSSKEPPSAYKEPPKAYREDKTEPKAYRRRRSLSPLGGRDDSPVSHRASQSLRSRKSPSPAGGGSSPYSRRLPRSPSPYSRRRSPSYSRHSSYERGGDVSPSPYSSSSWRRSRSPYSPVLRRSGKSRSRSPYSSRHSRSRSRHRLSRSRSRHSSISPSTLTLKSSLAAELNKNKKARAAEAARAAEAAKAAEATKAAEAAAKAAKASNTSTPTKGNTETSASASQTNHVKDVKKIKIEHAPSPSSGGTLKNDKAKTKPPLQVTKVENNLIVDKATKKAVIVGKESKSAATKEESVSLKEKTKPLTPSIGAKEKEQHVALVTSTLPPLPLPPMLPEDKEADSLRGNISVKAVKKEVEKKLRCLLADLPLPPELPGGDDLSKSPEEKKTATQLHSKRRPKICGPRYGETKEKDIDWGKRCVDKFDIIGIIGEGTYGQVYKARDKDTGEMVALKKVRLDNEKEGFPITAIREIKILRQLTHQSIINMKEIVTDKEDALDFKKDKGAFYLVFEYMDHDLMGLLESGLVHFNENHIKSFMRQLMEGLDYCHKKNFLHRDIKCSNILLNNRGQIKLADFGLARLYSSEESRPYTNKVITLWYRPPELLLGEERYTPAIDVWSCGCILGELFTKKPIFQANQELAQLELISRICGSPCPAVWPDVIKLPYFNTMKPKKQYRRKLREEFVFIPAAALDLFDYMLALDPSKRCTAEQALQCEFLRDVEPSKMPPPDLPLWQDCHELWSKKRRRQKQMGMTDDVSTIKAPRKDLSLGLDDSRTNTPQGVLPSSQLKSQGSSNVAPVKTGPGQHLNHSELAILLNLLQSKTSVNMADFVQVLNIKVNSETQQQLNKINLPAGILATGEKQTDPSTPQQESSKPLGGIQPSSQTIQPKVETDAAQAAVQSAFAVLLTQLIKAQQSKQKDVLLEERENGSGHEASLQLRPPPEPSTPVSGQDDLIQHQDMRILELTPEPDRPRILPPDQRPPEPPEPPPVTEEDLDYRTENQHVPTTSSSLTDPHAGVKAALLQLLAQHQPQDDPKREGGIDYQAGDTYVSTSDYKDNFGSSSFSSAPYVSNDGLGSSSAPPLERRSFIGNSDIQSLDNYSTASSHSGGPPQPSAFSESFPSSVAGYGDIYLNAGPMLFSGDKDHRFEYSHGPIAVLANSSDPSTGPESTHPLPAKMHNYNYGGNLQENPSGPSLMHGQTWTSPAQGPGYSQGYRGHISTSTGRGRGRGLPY
Structure (SMILES),remaining binding at 1 µM (ACVR2B) [%],remaining binding at 1 µM (ALK) [%],remaining binding at 1 µM (ALK(L1196M)) [%],remaining binding at 1 µM (BMPR1A) [%],remaining binding at 1 µM (BMPR1B) [%],remaining binding at 1 µM (BRSK2) [%],remaining binding at 1 µM (CDC2L5) [%],remaining binding at 1 µM (CDK4-cyclinD1) [%],remaining binding at 1 µM (CLK2) [%],remaining binding at 1 µM (CSF1R-autoinhibited) [%],remaining binding at 1 µM (CSNK1D) [%],remaining binding at 1 µM (EGFR(S752-I759del)) [%],remaining binding at 1 µM (EPHA8) [%],remaining binding at 1 µM (ERK3) [%],remaining binding at 1 µM (FGR) [%],"percent control (FLT3(ITD, F691L)) [%]",remaining binding at 1 µM (FLT3(K663Q)) [%],remaining binding at 1 µM (IGF1R) [%],remaining binding at 1 µM (IRAK4) [%],remaining binding at 1 µM [1] [%],further results
CCN1CCN(Cc2ccc(Nc3nc4ccc(Oc5ccnc(NC(C)=O)c5)cc4n3C)cc2C(F)(F)F)CC1 [Compound I-2],97,76,78,100,84,100,59,85,64,52,100,100,43,94,100,34,16,59,81,30,remaining binding at 1 µM (LATS1): 42%; remaining binding at 1 µM (MLK3): 100%; remaining binding at 1 µM (MST2): 81%; remaining binding at 1 µM (MST4): 89%; remaining binding at 1 µM (MYO3B): 87%; remaining binding at 1 µM (NEK10): 100%; remaining binding at 1 µM (PIK3CA): 90%; remaining binding at 1 µM (PIKFYVE): 80%; remaining binding at 1 µM (PIP5K2C): 96%; remaining binding at 1 µM (PKN2): 100%; remaining binding at 1 µM (PRKR): 39%; remaining binding at 1 µM (RIOK3): 22%; remaining binding at 1 µM (RIPK5): 69%; remaining binding at 1 µM [2]: 100%; remaining binding at 1 µM (SLK): 81%; remaining binding at 1 µM (SNARK): 100%; remaining binding at 1 µM (SRMS): 67%; remaining binding at 1 µM (TAOK2): 0.25%; remaining binding at 1 µM (TGFBR1): 100%; remaining binding at 1 µM (ZAP70): 100%
"CCN1CCN(Cc2ccc(Nc3nc4ccc(Oc5ccnc(NC(C)=O)c5)c(C)c4n3C)cc2C(F)(F)F)CC1 [Compound I-6, N-(4-(2-(4-((4-ethylpiperazin-1-yl)methyl)-3-(trifluoromethyl)phenylamino)-1,7-dimethyl-1H-benzo[d]imidazol-6-yloxy)pyridin-2-yl)acetamide]",100,90,51,98,89,74,3.8,83,91,68,100,94,2.5,94,51,46,9.3,34,98,40,remaining binding at 1 µM (LATS1): 95%; remaining binding at 1 µM (MLK3): 95%; remaining binding at 1 µM (MST2): 58%; remaining binding at 1 µM (MST4): 100%; remaining binding at 1 µM (MYO3B): 89%; remaining binding at 1 µM (NEK10): 79%; remaining binding at 1 µM (PIK3CA): 91%; remaining binding at 1 µM (PIKFYVE): 93%; remaining binding at 1 µM (PIP5K2C): 93%; remaining binding at 1 µM (PKN2): 93%; remaining binding at 1 µM (PRKR): 64%; remaining binding at 1 µM (RIOK3): 100%; remaining binding at 1 µM (RIPK5): 61%; remaining binding at 1 µM [2]: 93%; remaining binding at 1 µM (SLK): 55%; remaining binding at 1 µM (SNARK): 100%; remaining binding at 1 µM (SRMS): 38%; remaining binding at 1 µM (TAOK2): 0%; remaining binding at 1 µM (TGFBR1): 95%; remaining binding at 1 µM (ZAP70): 99%

# Source: patent US12522583B2, “Benzimidazole derivatives and aza-benzimidazole derivatives as Janus kinase 2 inhibitors and uses thereof” (Dana-Farber Cancer Institute, Inc., priority 2018, dated 2026)
